Experiment [1] relates to explants with the mannose 6-phosphate isomerase gene from E. coli. Nature of the experiment: Regenerated shoots selected by compounds in addition to mannose, M-6-P-isomerase. Conditions: genotype M-6-P-isomerase. The format is cell-based.
The test system of experiment [2] is non-transformed potato stem segments. The experiment can be described thus: Inhibition by mannose of regeneration of shoots. It is filed as cell-based, Solanum tuberosum. The method, then: This substrate is referred to hereafter as "selection/regeneration substrate". Regenerated plants are produced as described above, except that the shoot segments are not co-cultured with bacteria and the washing procedure consequential thereon is omitted. […] In general, mannose cannot be used as a carbohydrate source in most plant species. When mannose is added to plants it is metabolized and mannose 6-phosphate accumulates. Mannose 6-phosphate can be converted to fructose 6-phosphate by mannose 6-phosphate isomerase, the amount converted being dependent upon the activity of the isomerase. Such fructose 6-phosphate may be utilized by plants, but in principal high levels of mannose (whether or not an alternative carbohydrate source is available) are toxic to plants.

A further experiment relates to maize callus cultures. Conditions: callus cultures of 4 maize lines; 0-20 g/L; three weeks.
The next experiment concerns maize protoplasts. The experiment can be described thus: Mannose selection in maize protoplast PEG-mediated transformation. It is filed as cell-based. The following applies: 2% mannose for one to two weeks; 47/17 million protoplasts.
Experiment [3] concerns plant material transgenic for the mannose 6-phosphate isomerase gene. The experiment can be described thus: Effect of methyl-3-O-glucose on selection of transgenic shoots on mannose. The following applies: mannose 15 g/l; MOG 0 g/l; no sucrose. It is filed as cell-based. The source says: The transformed plant material is transgenic for the mannose 6-phosphate isomerase gene. After 21 days the selected shoots are harvested.

In the next experiment the test system is Wild type explants. The experiment can be described thus: Regenerated shoots selected by compounds in addition to mannose, wild type. Conditions: genotype Wild type. It is filed as cell-based.
The test system of another experiment is immature maize embryos. Nature of the experiment: Mannose selection of bombarded immature maize embryos. The following applies: selection on 10 g/L D-mannose for 3 weeks; 420 embryos. It is filed as cell-based.

Each structure is given as a SMILES string.

With `O=C[C@@H](O)[C@@H](O)[C@H](O)[C@H](O)CO` [mannose, D-mannose], the “Number of regenerated shoots per explant” value was 1.1 in experiment [1] and 0 with Wild type explants. Moreover, the “Regenerated shoots/explant (%)” value in experiment [2] (sucrose 0 g/l, mannose 5 g/l, up to 40th day) is 0%; in experiment [2] (sucrose 0 g/l, mannose 10 g/l), 0%; in experiment [2] (sucrose 0 g/l, mannose 20 g/l), 0%; in experiment [2] (sucrose 10 g/l, mannose 5 g/l), 3%; in experiment [2] (sucrose 10 g/l, mannose 10 g/l), 0%; in experiment [2] (sucrose 10 g/l, mannose 20 g/l), 0%. Also, the “Regenerated shoots/explant (%)” value stood at 0% in experiment [2] (sucrose 20 g/l, mannose 5 g/l); 0% in experiment [2] (sucrose 20 g/l, mannose 10 g/l); 0% in experiment [2] (sucrose 20 g/l, mannose 20 g/l). The “utilization as carbohydrate source, in words” value in the experiment with maize callus cultures was “cannot be utilized as the sole carbohydrate source”. Besides, the stable transformation frequency with maize protoplasts is 0.00028%. In addition, in experiment [3], the “GUS+ shoots/explant” value is 0. Moreover, in experiment [3], the “GUS+ shoots/sel. shoots (%)” value is recorded as 0%. The “% transformation” value in the experiment with immature maize embryos was found to be 2.9%.

These data come from patent publication US5994629A, “Positive selection” (priority 1991, dated 1999).
